In patent EP0203441A2, “Substituted benzoquinolizines, process for their preparation and their use as medicaments” (BAYER AG, priority 1985, dated 1986):

Tested on: ketaminanästhesierten Katze
Assay: Effect on venous capacity (plethysmograph) and mean arterial pressure in the anaesthetised cat
Format: in vivo
Settings: Dosis 0,1 mg/kg i.v., ketamine-anaesthetised cat
Text: Die Wirkung der erfindungsgemäßen Stoffe auf die Venenkapazität wird an der narkotisierten Katze mittels eines Plethysmographen gemessen. Als Vergleich wird in jedem Versuch als Standardsubstanz Natrium-Nitroprussid untersucht.

## CCOc1ccc2c(c1)CCN1CCC(Nc3ccccc3NC(C)=O)CC21 (single isomer, unassigned) [Beispiel 26]
  art.Mitteldruck: Ø
